Data on 1 compound can be found in US12414924B2 (Duke University, priority 2016, dated 2025).

A word on the IC90: it is the concentration at which the effect reaches the 90% level. One may read the Cmax as the maximum level reached in the sampled fluid or tissue.

Changes are numbered by the printed parent chain. Like-named read-outs stand apart in the source and are kept apart here.

For data set [1] the following is noted: PEARL trial, cited from earlier work.
Data set [2] deals with T1, ERα LBD mutant Y537C (Homo sapiens, UniProt P03372, Y537C).
T1 construct: expressed in transfected cells; host or cells: Caov2 ovarian carcinoma cells; SKBR3 breast adenocarcinoma cells
T1 sequence (P03372 1-595 Y537C): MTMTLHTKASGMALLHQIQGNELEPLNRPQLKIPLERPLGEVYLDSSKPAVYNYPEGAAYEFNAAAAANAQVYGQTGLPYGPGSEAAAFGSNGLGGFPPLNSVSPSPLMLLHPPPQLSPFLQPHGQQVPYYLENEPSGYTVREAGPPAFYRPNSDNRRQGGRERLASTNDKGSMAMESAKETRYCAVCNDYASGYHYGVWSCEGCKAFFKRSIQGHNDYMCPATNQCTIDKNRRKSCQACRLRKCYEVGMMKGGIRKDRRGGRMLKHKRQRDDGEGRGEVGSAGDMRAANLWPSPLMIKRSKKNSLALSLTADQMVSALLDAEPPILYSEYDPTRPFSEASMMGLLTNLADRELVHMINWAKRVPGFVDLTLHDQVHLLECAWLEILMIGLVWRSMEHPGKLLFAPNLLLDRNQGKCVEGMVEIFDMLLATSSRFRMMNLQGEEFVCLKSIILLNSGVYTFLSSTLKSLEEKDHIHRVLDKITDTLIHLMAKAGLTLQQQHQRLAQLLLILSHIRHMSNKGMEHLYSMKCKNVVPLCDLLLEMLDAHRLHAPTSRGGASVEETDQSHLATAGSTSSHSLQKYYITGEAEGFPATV
Put plainly: ERE-luciferase reporter gene assay in Caov2 cells, Y537C mutant receptor. It counts as cell-based. The settings on record: Caov2, in presence of 1 nM 17-β estradiol, 24 h. As for the experimental part: (§1) ExSite mutagenesis was performed using the corresponding primers as summarized in Table 1 below on a pENTR2B ERα WT construct using Pfu ultra taq polymerase. The primers were PNK phosphorylated. Following PCR amplification, the products were digested with DpnI at 37° C. for 1 hr, followed by overnight ligation at 16° C. Ligated products were transformed into DH5α bacterial cells and grown on kanamycin resistant plates. The pENTR clones were verified by sequencing and then swapped into the pcDNA-DEST vector using the Gateway system (Invitrogen) for expression analysis.
(§2) Caov2 ovarian carcinoma cells were grown in RPMI-1640 media (Gibco) supplemented with 8% Fetal Bovine Serum (FBS), Sodium Pyruvate (NaPyr) and non-essential amino acids (NEAA) and passaged every 2-3 days. SKBR3 breast adenocarcinoma cells were grown in DMEM media (Gibco) supplemented with 8% Fetal Bovine Serum (FBS), Sodium Pyruvate (NaPyr) and non-essential amino acids (NEAA) and passaged every 2-3 days. Cells were switched into a phenol-red free RPMI-1640 media supplemented with 8% charcoal stripped fetal bovine serum (CFS), NaPyr, and NEAA one day before plating for experiment. Cells were then plated in 96-well plates for experiment in the phenol red-free media an additional day before transfection.
(§3) The plots include data from five independent experiments and each value is an average of triplicates from each experiment. […]
In general terms: A reporter such as luciferase makes a cellular process visible.

Data set [3] has as its target T2, wild-type (WT) ERα (Homo sapiens, UniProt P03372).
T2 construct: expressed in transfected cells; host or cells: Caov2 ovarian carcinoma cells; SKBR3 breast adenocarcinoma cells
T2 sequence (P03372 1-595): T1 sequence (P03372 1-595 Y537C) with C537Y
Put plainly: ERE-luciferase reporter gene assay in SKBR3 cells, wild-type receptor. It counts as cell-based. The settings on record: SKBR3, in presence of 1 nM 17-β estradiol, 24 h. As for the experimental part:
as §1, §2, §3

Data set [4] can be described thus: Reported Cmax in blood at doses used in prior clinical trials. It counts as in vivo. The settings on record: human, read-out: Converted (M) Cmax. An excerpt: See Maximov et al., Current ClinicalPharmacology 8(2): 135-155 (2013). […] See Assessment Report for Fablyn, 2009 (EMA). […] See Gardner et al., J Clin Pharmacol 46(1): 52-58 (2006).
A further data set deals with T3, ERα LBD mutant Y537N (Homo sapiens, UniProt P03372, Y537N).
T3 construct: expressed in transfected cells; host or cells: Caov2 ovarian carcinoma cells; SKBR3 breast adenocarcinoma cells
T3 sequence (P03372 1-595 Y537N): T1 sequence (P03372 1-595 Y537C) with C537N
In words: ERE-luciferase reporter gene assay in Caov2 cells, Y537N mutant receptor. The data set is classed as cell-based. As to conditions: Caov2, in presence of 1 nM 17-β estradiol, 24 h. As for the experimental part:
as §1, §2, §3

Data set [5] deals with T1, ERα LBD mutant Y537C. Put plainly: ERE-luciferase reporter gene assay in SKBR3 cells, Y537C mutant receptor. The data set is classed as cell-based. The settings on record: SKBR3, in presence of 1 nM 17-β estradiol, 24 h. Here is the method: as §1, §2, §3
The target in data set [6] is T2, wild-type (WT) ERα. Put plainly: ERE-luciferase reporter gene assay in Caov2 cells, wild-type receptor. The data set is classed as cell-based. As to conditions: Caov2, in presence of 1 nM 17-β estradiol, 24 h. Here is the method:
as §1, §2, §3

`Oc1ccc2c(c1)CC[C@H](c1ccccc1)[C@@H]2c1ccc(OCCN2CCCC2)cc1` [Lasofoxifene]: in data set [1] (placebo-controlled), the “risk of osteoporosis” value was “reduce the risk of osteoporosis”. In addition, the “risk of breast cancer” value in data set [1] (post-menopausal women with osteoporosis) was “reduced the risk of breast cancer in post-menopausal women with osteoporosis”. The concentration for an effect of 90% (IC90) on ERα LBD mutant Y537C [2] was 204 pM; at wild-type (WT) ERα [3], 3300 pM; at ERα LBD mutant Y537N, 745 pM; on ERα LBD mutant Y537C [5], 5900 pM; on wild-type (WT) ERα [6] it was 6.68 pM. For the same compound, the maximum concentration (Cmax) in data set [4] (0.5 mg dose) was 9e-09 M; in data set [4] (1 mg dose) it was 1.55e-08 M.
